Experimental data from patent publication US4450279A, “Dialkylthioxanthones” (priority 1981, dated 1984).
Converted amounts (≈) assume the structure as drawn. Read-outs that look alike come from different tables or passages of the source. One block for each compound: values may come before it.

Tests used:
[1] = Hardening time of photopolymerizable resin film under continuous xenon lamp irradiation (until surface ceases to be sticky)
Description: Bisphenol A diglycidyl ether diacrylate
(§1) Trimethylolpropane triacrylate
Triethanolamine 2.5 parts by weight
Photopolymerization initiator of formula (I)
(dialkylthioxanthone derivative)
Irradiation device and conditions: […]

[2] = Yellowing resistance of coating film after irradiation, estimated visually; set-up: key: A: Only slight yellowing; B: Clear yellowing; C: Remarkable yellowing
Description: The above photopolymerizable resin composition was applied to a glass plate in a thickness of 25μ and left 9 cm below a xenone lamp. The sensitivity was judged by measuring the time until the surface of the coated film ceases to be sticky (whether the coated film is sticky or not is judged by the touch with finger) under the continuous irradiation.
*^1 Yellowing resistance in the above table was estimated
visually from the state of the coating film after the

[3] = Solubility in organic solvents; format: physicochemical; details: organic solvent or mixture
[4] = Yellowing resistance of pigmented coating film; set-up: key: A: Only slight yellowing; B: Clear yellowing; C: Remarkable yellowing; details: Table V; composition (B), titanium oxide; same criteria as Table II
Experimental: (§2) The following photopolymerizable resin compositions (A) and (B) were prepared. Each of the compositions was applied to an aluminum plate in a thickness of 25μ. The aluminum plate was placed on a belt conveyer moving 20 cm below an 80 W/cm high-pressure mercury lamp at a speed of 18 m/min. Relationship between the number of passage times and physical properties of the coating film was examined to obtain the results shown in Table V.
(§3) (B) Titanium oxide-containing
(§4) Urethane acrylate resin
as §1
(§5) Butyl acrylate 18.8 parts by weight
(§6) Vinylpyrrolidone 9.4 parts by weight
(§7) Titanium oxide (rutile type)
(§8) Methyldiethanolamine 1.5 parts by weight
(§9) Photopolymerization initiator of
*^3 Yellowing resistance was estimated based on the same criteria as i

[5] = Hardening of trifunctional maleimide photopolymerizable resin film under high-pressure mercury lamp; details: 2.5 parts per 100 parts resin; 50μ on glass; 80 W/cm Hg lamp, 10 cm, 20 sec
Experimental: 16 Parts of diglycerol triglycidyl ether, 23 parts by weight of α-phenylmaleimidoacetic acid, 0.2 part by weight of dimethylaminoethyl methacrylate and 40 parts by weight of butyl acetate were reacted together at 90°-100° C. for 2 h to obtain a trifunctional photopolymerizable resin in which α-phenylmaleimidoacetic acid was added to substantially all glycidyl groups. 2.5 Parts by weight of 2,4-diisopropylthioxanthone of the present invention was added to 100 parts by weight of the above resin and the whole was kneaded thoroughly and applied onto a glass plate in a thickness of 50μ. […] In case 2,4-diisopropylthioxanthone was not added, the film was not hardened even after 60 min.

[6] = Pencil hardness of pigmented coating film after passing under high-pressure mercury lamp (JIS K 5400); details: for Pencil hardness after passing 3 times / Pencil hardness after passing 5 times: composition (A), carbon black; for Pencil hardness after passing 3 times: 3 passages; for Pencil hardness after passing 5 times: 5 passages; for Pencil hardness after passing 6 times: composition (B), titanium oxide, 6 passages
Experimental: as §2
(A) Carbon black-containing composition:
Epoxy acrylate resin (Shell
as §1
Hexanediol diacrylate 14.8 parts by weight
Carbon black 2.5 parts by weight
Methyldiethanolamine 2.0 parts by weight
as §9, §3, §4, §5, §6, §7, §8
*^2 Pencil hardness was determined according to JISK 5400 6, 14.

[7] = dispersed in resin, storage for a long period; background; cited from earlier work
[8] = unsubstituted thioxanthone, background; cited from earlier work
[9] = Table III, Control Example 1, same criteria as Table II
[10] = 1,2-dichloroethane, read-out: Solubility, 1,2-Dichloroethane
[11] = 1,2-dichloropropane, read-out: Solubility, 1,2-Dichloropropane
[12] = acetone, read-out: Solubility, Acetone
[13] = ethanol, read-out: Solubility, Ethanol
[14] = ethyl acetate, read-out: Solubility, Ethyl acetate
[15] = methanol, read-out: Solubility, Methanol
[16] = toluene, read-out: Solubility, Toluene
[17] = Table II, 2.5 parts initiator, 2.5 parts triethanolamine, 25μ film on glass, xenon lamp 9 cm
[18] = Table II, visual, after irradiation

Compound: CCc1c(C(C)C)ccc2sc3ccccc3c(=O)c12 [1-Ethyl-2-isopropylthioxanthone]
Hardening time ([1]; Table III, Control Example 1): 50 s | Yellowing resistance [2, 9]: A

solubility [3, 10]: > 500 mg/mL | solubility [3, 11]: > 500 mg/mL | solubility [3, 12]: 300 mg/mL (≈ 1180 mM) | solubility [3, 13]: 36 mg/mL (≈ 142 mM) | solubility [3, 14]: 300 mg/mL (≈ 1180 mM) | solubility [3, 15]: 33 mg/mL (≈ 130 mM) | solubility [3, 16]: > 500 mg/mL
Compound: CC(C)c1ccc2sc3ccccc3c(=O)c2c1 [Compound 3, 2-isopropylthioxanthone]

Compound: Cc1ccc(C)c2c(=O)c3ccccc3sc12 [1,4-Dimethylthioxanthone]
Hardening time ([1]; Table III, Control Example 1): 40 s | Yellowing resistance [2, 9]: B

Compound: Methylthioxanthone
Hardening time ([1]; Table III, Control Example 1): 40 s | Yellowing resistance [2, 9]: C

solubility [3, 10]: > 500 mg/mL | solubility [3, 11]: > 500 mg/mL | solubility [3, 12]: > 400 mg/mL | solubility [3, 13]: 90 mg/mL (≈ 304 mM) | solubility [3, 14]: > 500 mg/mL | solubility [3, 15]: 60 mg/mL (≈ 202 mM) | solubility [3, 16]: > 500 mg/mL
Compound: CC(C)c1cc(C(C)C)c2sc3ccccc3c(=O)c2c1 [Example 2, 2,4-diisopropylthioxanthone]
Yellowing resistance [4]: A | Hardened coating film [5]: coating film insoluble in dichloroethane or acetone | Pencil hardness after passing 3 times [6]: 4H | Pencil hardness after passing 5 times [6]: ≥ 6H | Pencil hardness after passing 6 times [6]: 4H | Hardening time [1, 17]: 10 s | Yellowing resistance [2, 18]: A

Compound: CCc1ccc(CC)c2c(=O)c3ccccc3sc12 [1,4-Diethylthioxanthone]
Hardening time ([1]; Table III, Control Example 1): 50 s | Yellowing resistance [2, 9]: A

Compound: Cc1cc(C(C)(C)C)cc2c(=O)c3ccccc3sc12 [Example 5, m-tert-butylmethyl thioxanthone]
Hardening time [1, 17]: 15 s | Yellowing resistance [2, 18]: A

Compound: CCc1ccc(C)c2c(=O)c3ccccc3sc12 [1-Methyl-4-ethylthioxanthone]
Hardening time ([1]; Table III, Control Example 1): 50 s | Yellowing resistance [2, 9]: B

solubility [3, 10]: 166 mg/mL (≈ 734 mM) | solubility [3, 11]: 77 mg/mL (≈ 340 mM) | solubility [3, 12]: 30 mg/mL (≈ 133 mM) | solubility [3, 13]: < 10 mg/mL | solubility [3, 14]: 29 mg/mL (≈ 128 mM) | solubility [3, 15]: < 10 mg/mL | solubility [3, 16]: 55 mg/mL (≈ 243 mM)
Compound: Cc1ccc2sc3ccccc3c(=O)c2c1 [Compound 2, 2-methylthioxanthone]

Compound: CC(C)c1ccc2sc3ccccc3c(=O)c2c1 [Isopropylthioxanthone]
Hardening time ([1]; Table III, Control Example 1): 20 s | Yellowing resistance [2, 9]: B

Compound: Ethylthioxanthone
Hardening time ([1]; Table III, Control Example 1): 40 s | Yellowing resistance [2, 9]: C

Compound: CCc1ccc2sc3ccccc3c(=O)c2c1C [1-Methyl-2-ethylthioxanthone]
Hardening time ([1]; Table III, Control Example 1): > 60 s

solubility [3, 10]: 11 mg/mL (≈ 51.8 mM) | solubility [3, 11]: < 5 mg/mL | solubility [3, 12]: < 5 mg/mL | solubility [3, 13]: < 5 mg/mL | solubility [3, 14]: 5 mg/mL (≈ 23.6 mM) | solubility [3, 15]: < 5 mg/mL | solubility [3, 16]: < 5 mg/mL
Compound: O=c1c2ccccc2sc2ccccc12 [Compound 1, thioxanthone]
Crystallization during storage [7]: crystallizes out during the storage for a long period of time | Solubility in and compatibility with photopolymerizable compound [8]: poor solubility | Hardening time ([1]; Table III, Control Example 1): > 60 s

Compound: CC(C)c1ccc(C(C)C)c2c(=O)c3ccccc3sc12 [1,4-Diisopropylthioxanthone]
Hardening time ([1]; Table III, Control Example 1): 50 s | Yellowing resistance [2, 9]: A

Compound: CC(C)(C)c1cc(C(C)(C)C)c2sc3ccccc3c(=O)c2c1 [Example 10, 2,4-di-tert-butylthioxanthone]
Hardening time [1, 17]: 25 s | Yellowing resistance [2, 18]: A

Compound: CCc1cc(CC)c2sc3ccccc3c(=O)c2c1 [Example 1, 2,4-diethylthioxanthone]
Yellowing resistance [4]: A | Pencil hardness after passing 3 times [6]: 3H | Pencil hardness after passing 5 times [6]: 6H | Pencil hardness after passing 6 times [6]: 3H | Hardening time [1, 17]: 15 s | Yellowing resistance [2, 18]: A
